Assay results: US8435544B2, “Ophthalmic compositions comprising calcineurin inhibitors or mTOR inhibitors” (Lux Biosciences, Inc., priority 2007, dated 2013)

Tests used:
[1] = Ocular distribution and pharmacokinetics of 14C-voclosporin in NZW rabbits; assay type: in vivo, New Zealand White (NZW) rabbits; details: for AUC / Cmax: bilateral ocular; for Cmax: Blood
Method: (§1) NZW rabbits (30 females/8 males) were used in a single dose (SD) and 7-day repeat dose (RD) study (see Table 38). DB rabbits (16 females) were used in a single dose study (see Table 39). […] Blood and ocular tissue radioactivity levels were assessed at designated time points via combustion followed by liquid scintillation counting.
(§2) At each sampling point, a t-test was used to compare the tissue concentrations within or between the two strains of rabbits. SigmaStat® 3.5 (Systat, Inc., San Jose, Calif.) was used for the statistical analyses (p<0.05). […] Pharmacokinetic analysis was performed using WinNonlin 5.2 (Pharsight, Corporation, Mountain View, Calif.). Cmax and Tmax, and where calculable AUC and t1/2, were reported.

[2] = Ocular distribution and pharmacokinetics of 14C-voclosporin in DB rabbits; assay type: in vivo, Dutch Belted (DB) rabbits
Method: as §1, §2

[3] = tested on: canine keratoconjunctivitis sicca (KCS); assay: Topical voclosporin clinical study in dogs with KCS; assay type: in vivo
Excerpt: The study covered assessment of tear production (as measured by the Schirmer Tear Test (STT)), the response of clinical observation of the cornea, and participating ophthalmologists' overall assessment of efficacy.
Dogs diagnosed with chronic (>3 months in duration) immune-mediated KCS were selected from the clinic populations of the North Carolina State Veterinary Teaching Hospital. Diagnosis of immune-mediated KCS was made by exclusion of other causes of KCS.
Physical and ophthalmic examinations were performed at 0, 7, 14, and 28 days.

[4] = topical mixed micellar composition

C=CC=CCC(C)C(O)C1C(=O)NC(CC)C(=O)N(C)CC(=O)N(C)C(CC(C)C)C(=O)NC(C(C)C)C(=O)N(C)C(CC(C)C)C(=O)NC(C)C(=O)NC(C)C(=O)N(C)C(CC(C)C)C(=O)N(C)C(CC(C)C)C(=O)N(C)C(C(C)C)C(=O)N1C (stereo not drawn) [^14C-voclosporin]
mortality, morbidity, clinical irritation ([1]; 35 μL of 0.2% 14C-voclosporin mixed micellar formulation, single or daily for 7 days, NZW and DB rabbits): No mortality, morbidity or evidence of clinical irritation | AUC ([1]; Aqueous Humor, repeat dose (RD, QD for 7 days), female NZW rabbits): 96 hr * ng eq./g | AUC ([1]; Aqueous Humor, single dose (SD), female NZW rabbits): 45 hr * ng eq./g | Cmax ([1]; repeat dose (RD, QD for 7 days), female NZW rabbits): BQL (Below Quantifiable Limit (<0.1 ng/mL)) | Cmax ([1]; single dose (SD), female NZW rabbits): BQL (Below Quantifiable Limit (<0.1 ng/mL)) | AUC ([1]; Choroid/Retina, repeat dose (RD, QD for 7 days), female NZW rabbits): 897 hr * ng eq./g | AUC ([1]; Choroid/Retina, single dose (SD), female NZW rabbits): 472 hr * ng eq./g | AUC ([1]; Cornea, repeat dose (RD, QD for 7 days), female NZW rabbits): 54624 hr * ng eq./g | AUC ([1]; Cornea, single dose (SD), female NZW rabbits): 23166 hr * ng eq./g | AUC ([1]; Iris/Ciliary Body, repeat dose (RD, QD for 7 days), female NZW rabbits): 1952 hr * ng eq./g | AUC ([1]; Iris/Ciliary Body, single dose (SD), female NZW rabbits): 382 hr * ng eq./g | AUC ([1]; Lacrimal Gland, repeat dose (RD, QD for 7 days), female NZW rabbits): 1109 hr * ng eq./g | AUC ([1]; Lacrimal Gland, single dose (SD), female NZW rabbits): 416 hr * ng eq./g | AUC ([1]; Lens, repeat dose (RD, QD for 7 days), female NZW rabbits): 356 hr * ng eq./g | AUC ([1]; Lens, single dose (SD), female NZW rabbits): 47 hr * ng eq./g | AUC ([1]; Lower Bulbar Conjunctiva, repeat dose (RD, QD for 7 days), female NZW rabbits): 16585 hr * ng eq./g | AUC ([1]; Lower Bulbar Conjunctiva, single dose (SD), female NZW rabbits): 12029 hr * ng eq./g | AUC ([1]; Lower Eyelid, repeat dose (RD, QD for 7 days), female NZW rabbits): 358791 hr * ng eq./g | AUC ([1]; Lower Eyelid, single dose (SD), female NZW rabbits): 207630 hr * ng eq./g | AUC ([1]; Nictitating Membrane, repeat dose (RD, QD for 7 days), female NZW rabbits): 15964 hr * ng eq./g | AUC ([1]; Nictitating Membrane, single dose (SD), female NZW rabbits): 12135 hr * ng eq./g | AUC ([1]; Optic Nerve, repeat dose (RD, QD for 7 days), female NZW rabbits): 1805 hr * ng eq./g | AUC ([1]; Optic Nerve, single dose (SD), female NZW rabbits): 569 hr * ng eq./g | AUC ([1]; Sclera, repeat dose (RD, QD for 7 days), female NZW rabbits): 3825 hr * ng eq./g | AUC ([1]; Sclera, single dose (SD), female NZW rabbits): 2646 hr * ng eq./g | AUC ([1]; Submandibular Lymph Node, repeat dose (RD, QD for 7 days), female NZW rabbits): 1190 hr * ng eq./g | AUC ([1]; Submandibular Lymph Node, single dose (SD), female NZW rabbits): 893 hr * ng eq./g | AUC ([1]; Tear, repeat dose (RD, QD for 7 days), female NZW rabbits): 230878 hr * ng eq./g | AUC ([1]; Tear, single dose (SD), female NZW rabbits): 168259 hr * ng eq./g | AUC ([1]; Upper Bulbar Conjunctiva, repeat dose (RD, QD for 7 days), female NZW rabbits): 19944 hr * ng eq./g | AUC ([1]; Upper Bulbar Conjunctiva, single dose (SD), female NZW rabbits): 14782 hr * ng eq./g | AUC ([1]; Upper Eyelid, repeat dose (RD, QD for 7 days), female NZW rabbits): 98656 hr * ng eq./g | AUC ([1]; Upper Eyelid, single dose (SD), female NZW rabbits): 114651 hr * ng eq./g | AUC ([1]; Vitreous Humor, repeat dose (RD, QD for 7 days), female NZW rabbits): 23 hr * ng eq./g | AUC ([1]; Vitreous Humor, single dose (SD), female NZW rabbits): 27 hr * ng eq./g | concentrations in remaining ocular tissues ([1]; after a single dose): 20-223 ng eq/g tissue | lowest concentrations of radioactivity in ocular tissues ([1]; after a single dose, aqueous and vitreous humor, and the lens): 1-11 ng eq/g tissue | highest concentrations of radioactivity in ocular tissues ([1]; after a single dose, eyelids, conjunctiva, cornea, nictitating membrane and tears): > 1 mg eq/g tissue | Blood levels ([1]; after ocular application): at the lower limit of quantification (LLOQ) | concentrations of radioactivity in all ocular tissues except lens, aqueous humor, vitreous humor ([1]; after single and repeat ocular applications): ≥ 10 ng eq/g tissue | blood radioactivity ([1]; all but one blood sample below LLOQ): < 3.06 ng eq/mL | concentrations in target tissues (conjunctiva, cornea, lacrimal gland) at 24 hours ([1]; once daily ocular applications for 7 days): remained at therapeutic levels even at the 24-hour mark | change in t1/2 on repeat dosing ([1]; repeat dosing up to 7 days, lower bulbar conjunctiva, nictitating membrane, upper bulbar conjunctiva): no apparent change | levels in all ocular tissues except aqueous/vitreous humor and lens ([1]; single dose administration): higher than 10 ng equivalent drug/gram tissue | distribution to the contralateral, non-treated eye ([1]; unilateral dosing): minimal distribution | AUC ([2]; Aqueous Humor, single dose, bilateral ocular, female DB rabbits): 56 hr * ng eq./g | Cmax ([2]; Blood, single dose, bilateral ocular, female DB rabbits): BQL (Below Quantifiable Limit (<0.1 ng/mL)) | AUC ([2]; Choroid/Retina, single dose, bilateral ocular, female DB rabbits): 92 hr * ng eq./g | AUC ([2]; Cornea, single dose, bilateral ocular, female DB rabbits): 27844 hr * ng eq./g | AUC ([2]; Iris/Ciliary Body, single dose, bilateral ocular, female DB rabbits): 541 hr * ng eq./g | AUC ([2]; Lacrimal Gland, single dose, bilateral ocular, female DB rabbits): 335 hr * ng eq./g | AUC ([2]; Lens, single dose, bilateral ocular, female DB rabbits): 26 hr * ng eq./g | AUC ([2]; Lower Bulbar Conjunctiva, single dose, bilateral ocular, female DB rabbits): 13107 hr * ng eq./g | AUC ([2]; Lower Eyelid, single dose, bilateral ocular, female DB rabbits): 512473 hr * ng eq./g | AUC ([2]; Nictitating Membrane, single dose, bilateral ocular, female DB rabbits): 13091 hr * ng eq./g | AUC ([2]; Optic Nerve, single dose, bilateral ocular, female DB rabbits): 1127 hr * ng eq./g | AUC ([2]; Sclera, single dose, bilateral ocular, female DB rabbits): 3502 hr * ng eq./g | AUC ([2]; Submandibular Lymph Node, single dose, bilateral ocular, female DB rabbits): 635 hr * ng eq./g | AUC ([2]; Tear, single dose, bilateral ocular, female DB rabbits): 262299 hr * ng eq./g | AUC ([2]; Upper Bulbar Conjunctiva, single dose, bilateral ocular, female DB rabbits): 14296 hr * ng eq./g | AUC ([2]; Upper Eyelid, single dose, bilateral ocular, female DB rabbits): 68063 hr * ng eq./g | AUC ([2]; Vitreous Humor, single dose, bilateral ocular, female DB rabbits): 16 hr * ng eq./g | ocular tissue concentrations (e.g., Cmax) versus NZW rabbits (melanin binding) ([2]; single dose to DB rabbits): not significantly different from NZW rabbits

C=C/C=C/C[C@@H](C)[C@@H](O)[C@H]1C(=O)N[C@@H](CC)C(=O)N(C)CC(=O)N(C)[C@@H](CC(C)C)C(=O)N[C@@H](C(C)C)C(=O)N(C)[C@@H](CC(C)C)C(=O)N[C@@H](C)C(=O)N[C@H](C)C(=O)N(C)[C@@H](CC(C)C)C(=O)N(C)[C@@H](CC(C)C)C(=O)N(C)[C@@H](C(C)C)C(=O)N1C [voclosporin, reference compound]
tissue accumulation ([1]; after multiple dosing): minimal tissue accumulation | tissue levels at 24 hours ([1]; single (1 day) topical dose, female NZW rabbits): Therapeutic levels of voclosporin were noticed even at the 24-hour mark | level in the choriod/retina [1, 4]: high levels | level in the vitreous humor [1, 4]: low levels | adverse effects ([3]; 30 days treatment period, 0.2 wt % voclosporin topically every 12 hours): No adverse effects were noted | maintenance of STT ([3]; dogs with KCS, 30 days): maintained the STT in these dogs for 30 days
